A value given as a limit tells only on which side of the number the result lay.

The molecule `OC(c1ccccc1)c1ccc(Nc2nccc(-c3cnc4ccccn34)n2)cc1` (racemic) [Example 8, (±)-2-[4-(Hydroxyphenylmethyl)anilino]-4-(imidazo-[1,2-a]-pyridin-3-yl)pyrimidine] had a melting point of 213 to 216 °C.
For the molecule `O=C(c1ccc(Nc2nccc(-c3cnc4ccccn34)n2)cc1)c1ccc(N2CCOCC2)cc1` [Example 1, 2-[4-(4-Morpholinobenzoyl)anilino]-4-(imidazo-[1,2-a]-pyridin-3-yl)pyrimidine], the melting point was > 237 °C (dec.).
For the molecule `Cc1ccc(C(=O)c2ccc(Nc3nccc(-c4cnc5ccccn45)n3)cc2)cc1` [Example 3, 2-[4-(4-Methylbenzoyl)anilino)-4-(imidazo-[1,2-a]-pyridin-3-yl)pyrimidine], the melting point lay in the range of 238.9 to 239.2 °C.
Turning to `N#Cc1ccc(C(=O)c2ccc(Nc3nccc(-c4cnc5ccccn45)n3)cc2)cc1` [Example 4, 2-[4-(4-Cyanobenzoyl)anilino]-4-(imidazo-[1,2-a]-pyridin-3-yl)pyrimidine], the melting point is > 230 °C (dec.).
In turn, `O=C(c1ccc(Nc2nccc(-c3cnc4ccccn34)n2)cc1)c1cccc(Cl)c1` [Example 5, 2-[4-(3-Chlorobenzoyl)anilino]-4-(imidazo-[1,2-a)-pyridin-3-yl)pyrimidine] had a melting point of 194.7 to 196.7 °C.
In the case of `CCOc1cccc(C(=O)c2ccc(Nc3nccc(-c4cnc5ccccn45)n3)cc2)c1` [Example 6, 2-[4-(3-Ethoxybenzoyl)anilino]-4-(imidazo-[1,2-a]-pyridin-3-yl)pyrimidine], the melting point is 197.3 to 197.5 °C.
Turning to `O=C(c1ccccc1)c1ccc(Nc2nccc(-c3cnc4ccccn34)n2)cc1` [Example 7, 2-(4-Benzoylanilino)-4-(imidazo-[1,2-a]-pyridin-3-yl)pyrimidine], the melting point is 249 to 255 °C (dec.).
As to `O=C(Cc1ccccc1)c1ccc(Nc2nccc(-c3cnc4ccccn34)n2)cc1` [Example 9, 2-[4-(1-Oxo-2-phenylethyl)anilino]-4-(imidazo-[1,2-a]-pyridin-3-yl)pyrimidine], the melting point was 225 to 228 °C (dec.).
The value for `O=C(c1ccccc1)c1cccc(Nc2nccc(-c3cnc4ccccn34)n2)c1` [Example 10, 2-(3-Benzoylanilino)-4-(imidazo-[1,2-a]-pyridin-3-yl)pyrimidine] was 237 to 246 °C (dec.); that for `O=C(c1ccc(Nc2nccc(-c3cnc4ccccn34)n2)cc1)c1ccc2cc[nH]c2c1` [Example 11, 2-[4-(1 H-Indol-6-ylcarbonyl)anilino]-4-(imidazo-[1,2-a]-pyridin-3-yl)pyrimidine] was 173 to 178 °C (dec.).
For `O=C(c1ccc(Nc2nccc(-c3cnc4ccccn34)n2)cc1)c1nccs1` [Example 13, 2-[4-(1,3-Thiazol-2-ylcarbonyl)anilino]-4-(imidazo-[1,2-a]-pyridin-3-yl)pyrimidine], the melting point is 234 to 235 °C (dec.).

Usually melting point stands for the temperature of the solid-liquid transition.

The values are drawn from patent US7345050B2, “Pyrimidine compounds” (AstraZeneca AB, priority 2001, dated 2008).
